The values below come from patent US20110130397A1, “PYRROLINONE COMPOUNDS AS INHIBITORS OF BACTERIAL PEPTIDYL TRNA HYDROLASE AND USES THEREOF” (priority 2006, published 2011).

The first series is described as follows: Cytotoxicity (CellTiter 96 Aqueous Non-Radioactive Cell Proliferation Assay). The format is cell-based. Conditions: human, Huh7 cells. How it is done: Novel antibacterial peptidyl tRNA hydrolase inhibitors were identified using the MIC assay (inhibition ranged from 32-100%). The inhibitors were also bacteria specific, as evidenced by the low cytotoxicity observed for the human Huh7 cells (FIG. 4). Cytotoxicity was determined according to manufacturer's directions (CellTiter 96 Aqueous Non-Radioactive Cell Proliferation Assay, Promega).
Further data for representative compounds is set forth in Table 1 (MIC and cytotoxicity). Compounds were tested against S. aureus (ATCC 29213) and E. coli (BAS849—permeable) in the MIC assays. Certain compounds were also tested against other bacteria, including S. epidermis (ATCC 12228), E. faecium (ATCC 49624), and E. faecalis (ATCC 29212). Cytotoxicity was determined using Hu7 cells and Hep G2 cells. The MIC and cytotoxicity assays were performed as described above.
As for `CCOc1cc(C2C(C(=O)c3cc4ccccc4o3)=C(O)C(=O)N2c2nnc(SCc3cccc4ccccc34)s2)ccc1O` (centres unmarked) [Compound 2], the CC50 was over 79 µM. `CCOc1cc(C2C(C(=O)c3cc4ccccc4o3)=C(O)C(=O)N2c2nnc(SCc3ccccc3F)s2)ccc1O` (centres unmarked) [Compound 3]: the CC50 is over 83 µM. Still for that read-out and setting: under `CCOc1cc(C2C(C(=O)c3cc4ccccc4o3)=C(O)C(=O)N2c2nc3c(C)cc(C)cc3s2)ccc1O` (centres unmarked) [Compound 4] stands 53.4 µM.

As for `CCOc1cc(C2C(C(=O)c3cc4ccccc4o3)=C(O)C(=O)N2c2nnc(SCc3ccccc3)s2)ccc1O` (centres unmarked) [Compound 7], the CC50 was over 85 µM. Still for that read-out and setting: for `Cc1ccc2nc(N3C(=O)C(O)=C(C(=O)c4cc5ccccc5o4)C3c3cccc(O)c3)sc2c1` (centres unmarked) [Compound 8] the value was 80.1 µM; for `COc1cc(C2C(C(=O)c3cc4ccccc4o3)=C(O)C(=O)N2c2nnc(C)s2)ccc1OCc1ccccc1` (centres unmarked) [Compound 9], over 90 µM; for `CC(=O)c1sc(N2C(=O)C(O)=C(C(=O)c3cc4ccccc4o3)C2c2ccc(OCc3ccccc3)cc2)nc1C` (centres unmarked) [Compound 10], over 89 µM.

Take `COc1cc(C2C(C(=O)c3cc4ccccc4o3)=C(O)C(=O)N2c2nc(C)c(C(C)=O)s2)ccc1OCc1ccccc1` (centres unmarked) [Compound 11]: the CC50 is over 84 µM. For the compound `O=C(C1=C(O)C(=O)N(c2nnc(SCc3ccc(Cl)cc3)s2)C1c1cccc(O)c1)c1cc2ccccc2o1` (centres unmarked) [Compound 12], the CC50 was over 87 µM.

With `CCOc1cc(C2C(C(=O)c3cc4ccccc4o3)=C(O)C(=O)N2c2nc(C)c(C(C)=O)s2)ccc1O` (centres unmarked) [Compound 13], the CC50 worked out at 59.8 µM.

With `CCCCCOc1ccc(C2C(C(=O)c3cc4ccccc4o3)=C(O)C(=O)N2c2nc(C)c(C(C)=O)s2)cc1OC` (centres unmarked) [Compound 14], the CC50 worked out at 74.2 µM. In the case of `O=C(C1=C(O)C(=O)N(c2nnc(SCc3ccc(F)cc3)s2)C1c1cccc(O)c1)c1cc2ccccc2o1` (centres unmarked) [Compound 15], the CC50 was over 89 µM.

`CC(=O)C1=C(O)C(=O)N(c2nccs2)C1c1ccccc1` (centres unmarked) [Compound 22]: the half-maximal cytotoxic concentration (CC50) came out at 29.7 µM. `CCOC(=O)c1sc(N2C(=O)C(O)=C(C(=O)c3ccc(C)cc3)C2c2cccs2)nc1C` (centres unmarked) [Compound 28]: the CC50 was found to be 89.1 µM. `COC(=O)c1sc(N2C(=O)C(O)=C(C(=O)c3ccc(F)cc3)C2c2ccc(F)cc2)nc1C` (centres unmarked) [Compound 31]: the CC50 was 46.5 µM.

For the compound `Cc1nnc(N2C(=O)C(O)=C(C(=O)c3ccc(OC(C)C)cc3)C2c2ccco2)s1` (centres unmarked) [Compound 33], the CC50 was over 110 µM. On the same count and under the same terms, under `CCOC(=O)c1sc(N2C(=O)C(O)=C(C(=O)c3ccc(F)cc3)C2c2cccs2)nc1C` (centres unmarked) [Compound 40] stands 62.9 µM; under `COc1ccc(C(=O)C2=C(O)C(=O)N(c3nccs3)C2c2ccc(Cl)cc2)cc1C` (centres unmarked) [Compound 44], 51.5 µM.

With `CCOC(=O)c1sc(N2C(=O)C(O)=C(C(=O)c3ccco3)C2c2ccco2)nc1C` (centres unmarked) [Compound 45], the 50% cytotoxic concentration (CC50) turned out to be 96.2 µM.

For the compound `Cc1nc(C)c(C(=O)C2=C(O)C(=O)N(c3nc4ccc(Cl)cc4s3)C2c2cccs2)s1` (centres unmarked) [Compound 49], the CC50 was over 111 µM. Same read-out and setting: for `Cc1cnc(N2C(=O)C(O)=C(C(=O)c3cc4ccccc4o3)C2c2ccc(OCc3ccccc3)cc2)s1` (centres unmarked) [Compound 50] the value was 82 µM; for `O=C(C1=C(O)C(=O)N(c2nc3ccccc3s2)C1c1ccc(OCc2ccccc2)cc1)c1cc2ccccc2o1` (centres unmarked) [Compound 51], 82.3 µM; for `O=C(C1=C(O)C(=O)N(c2nncs2)C1c1ccc(OCc2ccccc2)cc1)c1cc2ccccc2o1` (centres unmarked) [Compound 52], over 90 µM.

For `O=C(C1=C(O)C(=O)N(c2nccs2)C1c1ccc(OCc2ccccc2)cc1)c1cc2ccccc2o1` (centres unmarked) [Compound 53], the CC50 was over 98 µM. `Cc1ccc(C2C(C(=O)c3ccc(Cl)cc3)=C(O)C(=O)N2c2nccs2)cc1` (centres unmarked) [Compound 59]: the CC50 was found to be 60.5 µM. Same read-out and setting: for `CCc1ccc2nc(N3C(=O)C(O)=C(C(=O)c4ccccc4)C3c3cccs3)sc2c1` (centres unmarked) [Compound 118] the value was 10.8 µM; for `CCc1ccc2nc(N3C(=O)C(O)=C(C(=O)c4ccccc4)C3c3ccco3)sc2c1` (centres unmarked) [Compound 119], 10.8 µM; for `CCc1ccc2nc(N3C(=O)C(O)=C(C(=O)c4ccco4)C3c3cccs3)sc2c1` (centres unmarked) [Compound 122], 58.2 µM.

Regarding `Cc1cc(C)c2nc(N3C(=O)C(O)=C(C(=O)c4ccc5c(c4)OCCO5)C3c3cccnc3)sc2c1` (centres unmarked) [Compound 126], the CC50 is 27.4 µM.

Assay in a further series: not given
Conditions: not given
Consider `CC(=O)c1sc(N2C(=O)C(O)=C(C(=O)c3cc4ccccc4o3)C2c2ccc(OCc3ccccc3)cc2)nc1C` (centres unmarked) [Compound 10], for which the melting point was 195 to 197 °C. Compound `Cc1cnc(N2C(=O)C(O)=C(C(=O)c3cc4ccccc4o3)C2c2ccc(OCc3ccccc3)cc2)s1` (centres unmarked) [Compound 50] returned a melting point of 241 to 243 °C. Same read-out and setting: for `O=C(C1=C(O)C(=O)N(c2nc3ccccc3s2)C1c1ccc(OCc2ccccc2)cc1)c1cc2ccccc2o1` (centres unmarked) [Compound 51] the value was 213 to 214 °C; for `O=C(C1=C(O)C(=O)N(c2nncs2)C1c1ccc(OCc2ccccc2)cc1)c1cc2ccccc2o1` (centres unmarked) [Compound 52], 150 to 154 °C; for `O=C(C1=C(O)C(=O)N(c2nccs2)C1c1ccc(OCc2ccccc2)cc1)c1cc2ccccc2o1` (centres unmarked) [Compound 53], 193 to 195 °C. Turning to `Cc1ccc(C(=O)C2=C(O)C(=O)N(c3nc4c(Cl)cccc4s3)C2c2ccc3ccccc3c2)o1` (centres unmarked) [Compound 601], the melting point fell in the range of 261 to 262 °C. Still for that read-out and setting: for `COc1cccc(C2C(C(=O)c3ccc(C)o3)=C(O)C(=O)N2c2nc3ccc(Cl)cc3s2)c1` (centres unmarked) [Compound 602] the value was 229 to 230 °C. The same measure, in the same setting: for `COc1cccc(C2C(C(=O)c3ccc(C)o3)=C(O)C(=O)N2c2nc3ccc(F)cc3s2)c1` (centres unmarked) [Compound 603] the value was 201 to 202 °C; for `COc1cccc(C2C(C(=O)c3ccc(C)o3)=C(O)C(=O)N2c2nc3c(Cl)cccc3s2)c1` (centres unmarked) [Compound 604], 255 to 256 °C; for `COc1cc(C2C(C(=O)c3ccc(C)o3)=C(O)C(=O)N2c2nc3ccc(Cl)cc3s2)cc(OC)c1OC` (centres unmarked) [Compound 605], 229 to 230 °C.

Regarding `COc1cc(C2C(C(=O)c3ccc(C)o3)=C(O)C(=O)N2c2nc3ccc(F)cc3s2)cc(OC)c1OC` (centres unmarked) [Compound 606], the melting point lay in the range of 244 to 245 °C. The same measure, in the same setting: for `COc1cc(C2C(C(=O)c3ccc(C)o3)=C(O)C(=O)N2c2nc3c(Cl)cccc3s2)cc(OC)c1OC` (centres unmarked) [Compound 607] the value was 251 to 252 °C; for `Cc1ccc(C(=O)C2=C(O)C(=O)N(c3nc4ccc(Cl)cc4s3)C2c2ccc(C)o2)o1` (centres unmarked) [Compound 608], 235 to 236 °C; for `Cc1ccc(C(=O)C2=C(O)C(=O)N(c3nc4c(Cl)cccc4s3)C2c2ccc(C)o2)o1` (centres unmarked) [Compound 610], 224 to 225 °C. Still for that read-out and setting: under `CCN(CC)c1ccc(C2C(C(=O)c3ccc(C)o3)=C(O)C(=O)N2c2nc3ccc(Cl)cc3s2)cc1` (centres unmarked) [Compound 614] stands 207 to 210 °C.

With `CCN(CC)c1ccc(C2C(C(=O)c3ccc(C)o3)=C(O)C(=O)N2c2nc3ccc(F)cc3s2)cc1` (centres unmarked) [Compound 615], the melting point fell in the range of 209 to 212 °C. The same measure, in the same setting: for `CCN(CC)c1ccc(C2C(C(=O)c3ccc(C)o3)=C(O)C(=O)N2c2nc3c(Cl)cccc3s2)cc1` (centres unmarked) [Compound 616] the value was 223 to 226 °C. Same read-out and setting: for `Cc1ccc(C(=O)C2=C(O)C(=O)N(c3nc4ccc(Cl)cc4s3)C2c2cccc3ccccc23)o1` (centres unmarked) [Compound 617] the value was 260 to 261 °C; for `Cc1ccc(C(=O)C2=C(O)C(=O)N(c3nc4ccc(F)cc4s3)C2c2cccc3ccccc23)o1` (centres unmarked) [Compound 618], 251 to 252 °C. Still for that read-out and setting: for `Cc1ccc(C(=O)C2=C(O)C(=O)N(c3nc4c(Cl)cccc4s3)C2c2cccc3ccccc23)o1` (centres unmarked) [Compound 619] the value was 249 to 250 °C; for `Cc1ccc(C(=O)C2=C(O)C(=O)N(c3nc4ccc(Cl)cc4s3)C2c2ccc(C#N)cc2)o1` (centres unmarked) [Compound 620], 259 to 260 °C; for `Cc1ccc(C(=O)C2=C(O)C(=O)N(c3nc4ccc(F)cc4s3)C2c2ccc(C#N)cc2)o1` (centres unmarked) [Compound 621], 255 to 256 °C. In the case of `Cc1ccc(C(=O)C2=C(O)C(=O)N(c3nc4c(Cl)cccc4s3)C2c2ccc(C#N)cc2)o1` (centres unmarked) [Compound 622], the melting point fell in the range of 273 to 274 °C. Still for that read-out and setting: under `Cc1ccc(C(=O)C2=C(O)C(=O)N(c3nc4ccc(Cl)cc4s3)C2c2cccc(F)c2F)o1` (centres unmarked) [Compound 623] stands 253 to 254 °C; under `Cc1ccc(C(=O)C2=C(O)C(=O)N(c3nc4ccc(F)cc4s3)C2c2cccc(F)c2F)o1` (centres unmarked) [Compound 624], 239 to 240 °C; under `Cc1ccc(C(=O)C2=C(O)C(=O)N(c3nc4c(Cl)cccc4s3)C2c2cccc(F)c2F)o1` (centres unmarked) [Compound 625], 274 to 275 °C. On the same count and under the same terms, under `Cc1ccc(C(=O)C2=C(O)C(=O)N(c3nc4ccc(Cl)cc4s3)C2c2ccccc2C)o1` (centres unmarked) [Compound 626] stands 254 to 256 °C; under `Cc1ccc(C(=O)C2=C(O)C(=O)N(c3nc4ccc(F)cc4s3)C2c2ccccc2C)o1` (centres unmarked) [Compound 627], 214 to 215 °C; under `Cc1ccc(C(=O)C2=C(O)C(=O)N(c3nc4c(Cl)cccc4s3)C2c2ccccc2C)o1` (centres unmarked) [Compound 628], 244 to 245 °C. Still for that read-out and setting: for `CC(=O)N1CCCC1C(=O)C1=C(O)C(=O)N(c2nc3ccc(Cl)cc3s2)C1c1ccc(F)cc1` (centres unmarked) [Compound 646, 4-(1-Acetylpyrrolidine-2-carbonyl)-1-(6-chlorobenzo[d]thiazol-2-yl)-5-(4-fluorophenyl)-3-hydroxy-1H-pyrrol-2(5H)-one] the value was 268 to 272 °C; for `CC(=O)NC(CC(C)C)C(=O)C1=C(O)C(=O)N(c2nc3ccc(Cl)cc3s2)C1c1ccc(F)cc1` (centres unmarked) [Compound 647], 148 to 152 °C. Compound `CC(=O)N1CCCC1C(=O)C1=C(O)C(=O)N(c2nc3ccc(F)cc3s2)C1c1ccc(Cl)cc1` (centres unmarked) [Compound 648] showed a melting point of 293 to 297 °C. Same read-out and setting: under `CC(=O)NC(CC(C)C)C(=O)C1=C(O)C(=O)N(c2nc3ccc(F)cc3s2)C1c1ccc(Cl)cc1` (centres unmarked) [Compound 649] stands 266 to 269 °C.
